Data as given in patent publication US4013762A, “Growth promotion” (Richardson-Merrell Inc., priority 1976, dated 1977).
Where two headings read alike, the source gives them in different places.

What was measured:
androgen receptor = target: T1, androgen receptor (Rattus norvegicus, UniProt P15207); test: Androgen binding: competitive binding with 3H-testosterone labeled cytosol receptor sites, rat prostate cytosol
T1 construct: male rats were castrated and the prostate cytosol was prepared; from tissue; host or cells: prostate cytosol of castrated male rats, prepared 24 to 48 hours after surgery
T1 sequence (P15207 1-902): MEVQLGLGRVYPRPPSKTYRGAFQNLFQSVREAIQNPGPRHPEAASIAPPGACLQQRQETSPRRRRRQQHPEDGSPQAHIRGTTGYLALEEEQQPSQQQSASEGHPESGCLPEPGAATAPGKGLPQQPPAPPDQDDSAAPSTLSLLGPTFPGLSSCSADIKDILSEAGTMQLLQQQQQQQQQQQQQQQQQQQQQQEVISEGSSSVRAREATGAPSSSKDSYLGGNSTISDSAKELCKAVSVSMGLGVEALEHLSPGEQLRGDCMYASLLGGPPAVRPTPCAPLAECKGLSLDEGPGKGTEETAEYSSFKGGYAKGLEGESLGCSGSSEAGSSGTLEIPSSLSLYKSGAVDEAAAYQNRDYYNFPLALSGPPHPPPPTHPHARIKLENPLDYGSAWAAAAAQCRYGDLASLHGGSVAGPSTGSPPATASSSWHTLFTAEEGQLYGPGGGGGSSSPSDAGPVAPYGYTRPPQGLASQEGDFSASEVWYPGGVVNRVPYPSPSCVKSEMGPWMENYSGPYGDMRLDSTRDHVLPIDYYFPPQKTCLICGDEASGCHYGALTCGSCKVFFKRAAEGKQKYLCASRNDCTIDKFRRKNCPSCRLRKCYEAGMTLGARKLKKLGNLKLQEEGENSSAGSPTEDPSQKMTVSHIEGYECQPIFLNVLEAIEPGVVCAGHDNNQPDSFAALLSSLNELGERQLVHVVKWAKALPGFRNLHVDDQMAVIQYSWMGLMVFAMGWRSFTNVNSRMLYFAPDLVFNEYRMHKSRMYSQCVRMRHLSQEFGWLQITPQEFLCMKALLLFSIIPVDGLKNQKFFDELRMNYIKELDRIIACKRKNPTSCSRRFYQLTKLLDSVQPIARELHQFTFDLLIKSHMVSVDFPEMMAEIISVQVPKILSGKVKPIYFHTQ
Description: This binding is the first step necessary for hormonal action.

[1] = system: ten day old leghorn chicks; test: Chick weight gain, subcutaneous treatment for six days; type: in vivo; settings: for Weight Gain (g ± S.E.M.): gain during one week, control 52.7 ± 1.6, * significantly different from controls, p <- 0.05
poultry and ruminants [2] = test: Growth promotion in animals; type: in vivo; settings: applicant's findings
muscle fiber [3] = test: Masculinizing effect on the muscle fiber; type: in vivo; settings: applicant's findings
[4] = reported in U.S. Pat. Nos. 3,235,573 and 3,449,381; cited from earlier work
poultry and ruminants [5] = settings: background, known; cited from earlier work
muscle fiber [6] = settings: background, known; cited from earlier work

C[C@]12CC[C@H]3[C@@H](CCC4=CC(=O)CC[C@@]43C=O)[C@@H]1CCC2=O [3,17-Dioxoandrost-4-en-19-al, 3,17-dioxoandrost-4-en-19-al]
androgen receptor binding (androgen receptor; in vitro, androgen target tissue): lack of androgen binding affinity | % Binding (androgen binding, relative) (androgen receptor; relative to 5α-dihydrotestosterone equated to 100, 4 × 10^-6 to 4 × 10^-10 molar, castrated male rat prostate cytosol): 0.07% | Weight Gain (g ± S.E.M.) ([1]; 1 mg/kg/day subcutaneously for six days): 58.8 ± 1.4 g | Weight Gain (g ± S.E.M.) ([1]; 10 mg/kg/day subcutaneously for six days): 63.0 ± 1.1 g | Weight Gain (g ± S.E.M.) ([1]; 30 mg/kg/day subcutaneously for six days): 74.0 ± 2.6 g | growth rate as measured by weight gain ([1]; 1.0, 10 and 30 mg/kg/day s.c. six days, compared to untreated control chicks): significant increase in growth rate

C[C@]12CC[C@H]3[C@@H](CCC4=CC(=O)CC[C@@]43C=O)[C@@H]1CC[C@@H]2O [3-oxo-17β-hydroxyandrost-4-en-19-al]
growth promotion (poultry and ruminants [2]): effective in growth promotion in animals | masculinizing effect on the muscle fiber (muscle fiber [3]): without any masculinizing effect on the muscle fiber | anabolic-androgenic activity [4]: anabolic-androgenic activity

CCC(=O)O[C@H]1CC[C@H]2[C@@H]3CCC4=CC(=O)CC[C@]4(C)[C@H]3CC[C@]12C [testosterone propionate]
growth promotion (poultry and ruminants [5]): effective in promoting growth in animals | masculinization of the muscle fiber (muscle fiber [6]): masculinization of the muscle fiber

CSCCC(O)C(=O)O (stereo not drawn) [α-hydroxy-γ-methylmercaptobutyric acid]
growth promotion (poultry and ruminants [5]): promote growth by improving feed efficiency
